According to US12201612B2, “Use of mavoglurant in the reduction of alcohol use or in preventing relapse into alcohol use” (NOVARTIS AG, priority 2017, dated 2025):
“Also recorded” adds a separate entry of the source.

Columns and labels:
mice [1] = settings: cited from earlier work
[2] = target: norepinephrine transporter (Homo sapiens, UniProt P23975); settings: cited from earlier work
monoamine oxidase = settings: cited from earlier work
NMDA receptors = settings: cited from earlier work
mice [3] = settings: cited from earlier work; remark: listed apart in the source
rats = settings: cited from earlier work
cytochrome P450 1A2 = target: T1, cytochrome P450 1A2 (Homo sapiens, UniProt P05177); settings: cited from earlier work
T1 sequence (P05177 1-516): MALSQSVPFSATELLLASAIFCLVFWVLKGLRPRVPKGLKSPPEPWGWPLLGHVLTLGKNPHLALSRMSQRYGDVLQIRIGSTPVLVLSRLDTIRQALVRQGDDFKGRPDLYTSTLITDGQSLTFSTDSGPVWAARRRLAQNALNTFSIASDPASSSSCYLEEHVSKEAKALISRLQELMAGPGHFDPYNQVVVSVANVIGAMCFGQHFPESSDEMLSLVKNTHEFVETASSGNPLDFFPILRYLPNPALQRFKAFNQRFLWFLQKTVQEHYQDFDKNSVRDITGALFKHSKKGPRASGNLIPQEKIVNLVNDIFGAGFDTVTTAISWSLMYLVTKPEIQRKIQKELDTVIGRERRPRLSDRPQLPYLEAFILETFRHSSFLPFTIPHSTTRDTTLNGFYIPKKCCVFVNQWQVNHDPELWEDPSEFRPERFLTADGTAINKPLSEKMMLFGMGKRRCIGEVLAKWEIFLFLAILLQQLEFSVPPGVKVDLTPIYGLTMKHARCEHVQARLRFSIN

Sprague-Dawley rats [4] = assay: Cue-induced reinstatement of the cocaine self-administration response (Phase II); format: in vivo, rat; settings: 10 mg/kg PO, 1 hour prior to test; after 9-day extinction
Method: The methods for food training, catheter surgery, flushing and infusion confirmation were the same as those in Phase I.
Cocaine self-administration training in this stage was conducted in a separate cohort of rats (N=32). The methods of training were the same as those in Phase I, but the cues (light flash plus tone) appeared concurrently during cocaine infusion, and the cue light stayed on during the 20 second timeout period. As in Phase I, rats underwent 15 days of acquisition training.
After a stable rate of cocaine self-administration was achieved, the rats underwent a 9-day extinction procedure, which was similar to acquisition training except that pressing the active lever led to saline infusion instead of cocaine. During extinction sessions no cues were presented after an active lever-press. Rats were all reached the criterion for extinction (number of infusions ≤5, i.e. number of active lever responses <30 in the 1-hour session) in day 9 (last day) of extinction training.
During the reinstatement session, which occurred one day after the last extinction session, rats were presented the cues (flash+tone) at the beginning of the session and their lever-press responses recorded. There was no cocaine infusion during this reinstatement session, subject only received saline on a FR5 schedule. […]

Sprague-Dawley rats [5] = assay: Acute effects on cocaine intravenous self-administration (Phase I, FR5); format: in vivo, rat; settings: sub-cohort I-b
Method: Adult male Sprague-Dawley rats (300-325 g at arrival) from Harlan Laboratory (Indiana, USA) were used. Upon arrival, the rats were assigned a unique identification numbers (tail marks). Animals were single housed in suspended polycarbonate rat cages with filter tops, and were acclimated for up to 7 days. All rats were examined, handled, and weighed prior to initiation of the study to assure adequate health and suitability. During the course of the study, 12 h/12 h light/dark cycles were maintained. The room temperature was 21-23° C. with a relative humidity maintained at 30-70%. Water was provided ad libitum for the duration of the study.
Cocaine Hydrochloride (Sigma-Aldrich, USA) (1.05 mg/ml which is equivalent to 0.3 mg/kg/infusion under 350 g body weight and 0.1 ml/infusion rate) was dissolved in saline (0.9% NaCl). The formulation was a clear solution.
Mavoglurant (free form) was formulated in 0.5% methylcellulose (MC) at 1, 3 and 10 mg/kg and administered orally at a dose volume of 1 ml/kg 60 minutes prior to test.
Intravenous drug self-administration took place in sound attenuated operant chambers equipped with an exhaust fan (Med Associates, VT). Each chamber contained two levers situated on one wall of the chamber. Only one of the two levers was active (located on the left side). Pressing the active lever caused delivery of reinforcer (food or cocaine). […]

Chain of norepinephrine transporter (P23975 whole entry, species assumed): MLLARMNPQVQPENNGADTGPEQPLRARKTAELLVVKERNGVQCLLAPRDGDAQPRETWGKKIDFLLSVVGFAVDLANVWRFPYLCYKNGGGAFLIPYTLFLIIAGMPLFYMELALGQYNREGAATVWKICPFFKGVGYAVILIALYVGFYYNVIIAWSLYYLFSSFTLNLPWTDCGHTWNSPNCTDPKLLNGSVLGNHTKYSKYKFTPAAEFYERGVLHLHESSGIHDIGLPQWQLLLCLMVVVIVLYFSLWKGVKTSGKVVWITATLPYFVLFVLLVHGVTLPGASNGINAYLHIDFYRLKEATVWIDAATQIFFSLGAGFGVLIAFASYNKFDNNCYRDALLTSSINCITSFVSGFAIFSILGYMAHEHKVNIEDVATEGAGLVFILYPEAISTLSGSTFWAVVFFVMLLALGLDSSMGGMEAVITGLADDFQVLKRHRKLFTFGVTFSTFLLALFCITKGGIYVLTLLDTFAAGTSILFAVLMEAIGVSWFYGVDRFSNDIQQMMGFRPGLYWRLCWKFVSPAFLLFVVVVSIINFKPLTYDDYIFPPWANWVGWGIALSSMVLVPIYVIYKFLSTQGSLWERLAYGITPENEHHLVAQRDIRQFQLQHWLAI

SMILES	cocaine self-administration (mice [1])	off-target effects on the norepinephrine transporter [2]	off-target effects on monoamine oxidase (monoamine oxidase)	off-target effects on NMDA receptors (NMDA receptors)	ethanol self-administration (mice [3])	cocaine self-administration (rats)	ethanol consumption (mice [3])	inhibition of cytochrome P450 1A2 (cytochrome P450 1A2)	cue-induced reinstatement of the self-administration response (Sprague-Dawley rats [4])	responding on the active lever (cocaine self-administration) (Sprague-Dawley rats [5]; 3 mg/kg PO, 60 minutes prior to test, post hoc p<0.10)	responding on the active lever (cocaine self-administration) (Sprague-Dawley rats [5]; 10 mg/kg PO, 1 hour prior to test, post hoc p<0.001)
Cc1cccc(C#Cc2ccccc2)n1 [MPEP, 2-methyl-6-(2-phenylethynyl)pyridine]	decreased cocaine self-administration	off-target effects	off-target effects	off-target effects	decreased ethanol self-administration	decreased cocaine self-administration	–	–	–	–	–
Cc1nc(C#Cc2cccnc2)cs1 [MTEP, 3-[2-(2-methylthiazol-4-yl)ethynyl]pyridine]	–	–	–	–	decreased ethanol self-administration	decreased cocaine self-administration	decreased ethanol consumption	potent inhibition	–	–	–
COC(=O)N1CC[C@@H]2[C@H]1CCC[C@@]2(O)C#Cc1cccc(C)c1 [mavoglurant, (−)-(3aR,4S,7aR)-4-Hydroxy-4-m-tolylethynyl-octahydro-indole-1-carboxylic acid methyl ester]	–	–	–	–	–	–	–	–	cue-induced reinstatement was suppressed; also recorded: completely prevented cue-induced reinstatement	tended to reduce responding on the active lever	significantly reduced responding; also recorded: significantly reduced cocaine self-administration
